Experimental data taken from PubChem BioAssay (NCI).
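Each compound was tested at five concentrations against cells in 96-well plates for 48 hours. TGI denotes the concentration required for complete inhibition of growth.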

Legend:
Test in all cases: growth of human tumour cells (NCI), 48 h
SN12C renal = system: SN12C renal
SK-MEL-2 melanoma = system: SK-MEL-2 melanoma
HS 578T breast = system: HS 578T breast
NCI/ADR-RES ovarian = system: NCI/ADR-RES ovarian
NCI-H23 lung = system: NCI-H23 lung
HOP-92 NSCLC = system: HOP-92 NSCLC
LOX IMVI melanoma = system: LOX IMVI melanoma
T-47D breast = system: T-47D breast
NCI-H460 lung = system: NCI-H460 lung
SK-MEL-5 melanoma = system: SK-MEL-5 melanoma

SMILES	TGI (SN12C renal) [µM]	TGI (SK-MEL-2 melanoma) [µM]	TGI (HS 578T breast) [µM]	TGI (NCI/ADR-RES ovarian) [µM]	TGI (NCI-H23 lung) [µM]	TGI (HOP-92 NSCLC) [µM]	TGI (LOX IMVI melanoma) [µM]	TGI (T-47D breast) [µM]	TGI (NCI-H460 lung) [µM]	TGI (SK-MEL-5 melanoma) [µM]
N#CC(C#N)=C1C(C#N)=C(N)NC12OCCO2	> 100	> 100	> 100	> 100	> 100	> 100	> 100	> 100	> 100	> 100
Clc1ccc(Cc2nc3ccccc3nc2-c2cccc(Br)c2)cc1	10.1	17.8	3.57	15.3	26.6	1.36	3.73	4.54	42.2	27.5
NC(=S)N/N=C\c1ccc(OCc2cccc(COc3ccc(/C=N/NC(N)=S)cc3)n2)cc1	> 100	38.1	> 100	> 100	> 100	> 100	> 100	0.921	> 100	24.4
COc1ccc(N(C)C(=O)N(C)c2ccc([N+](=O)[O-])cc2)cc1	> 100	45.3	41.3	68.4	> 100	> 100	> 100	> 100	> 100	> 100
COc1cc2c(cc1OCCCC(=O)Nc1cc(C(=O)Nc3cc(C(=O)Nc4cc(C(=O)NCCCN(C)C)n(C)n4)n(C)n3)n(C)n1)N=CC1CCCN1C2=O (stereo not given)	42.3	48	79.7	81.7	66.5	> 100	> 100	> 100	> 100	47.4
CCOP(=O)(OCC)C(Nc1cccc(F)c1)c1ccccc1 (stereo not given)	> 100	> 100	> 100	> 100	> 100	> 100	> 100	> 100	> 100	> 100
COc1cc(/C=C/C(=O)c2c(=O)o[nH][n+]2-c2ccccc2)ccc1[O-]	5.3	6.06	9.6	7.22	8.78	7.39	6.75	11.7	4.34	15
Cc1ccc(C(=O)O)c(CC2Cc3c(C)cccc3C2=O)c1 (stereo not given)	> 100	> 100	> 100	> 100	> 100	> 100	> 100	> 100	> 100	> 100
CCOC(=O)c1c(CN2CCNCC2)nc2ccccc2c1-c1ccccc1	28.2	29.3	35.9	34.4	36	17.7	31.6	30	28.4	28.5
C/C(=N\NC(=S)N1CCCCC1)c1cccc(C)n1	12.1	22.4	> 100	0.258	10.7	11.3	11.3	16.9	0.334	0.449
O=C1C=CC(=O)C(CNc2ccc(C(=O)OC34CC5CC(CC(C5)C3)C4)cc2)=C1	17.8	44.3	10.9	44.1	25.4	13.7	15.2	6.88	32.9	16.7
